Assay results published in patent publication US20250368640A1 (BIOFRONT LTD, priority 2022, published 2025).
Where two headings read alike, the source gives them in different places.

Key:
[1] = target: T1, HPK1 (Homo sapiens (Human), UniProt Q92918); test: HPK1 enzyme inhibition assay (ADP-Glo); type: biochemical
Procedure: HPK1 Enzyme Inhibition Assay
The compound was dissolved in 100% DMSO at the concentration of 10 mM. The HPK1 protein was purchased from Signal Chem (M23-11G-10). 2.5 μL per well of 2×HPK1 protein was added to assay plate containing the test compound, centrifuged at 1500 rpm for 1 minute, and then incubated at 25° C. for 60 minutes. MBP protein was purchased from Signal Chem (M42-51N) and ATP was purchased from Promega (V9102). The two were added 2.5 μL per well mixture of 2×MBP (0.2 ug/ul) and ATP (20 μM), centrifuged at 1500 rpm for 1 minute, then incubated at 25° C. for 60 minutes. Then added 5 μL of ADP-Glo from Promega (V9102) to the assay plate and depleted the unconsumed ATP for 60 minutes. Then centrifuged at 1500 rpm for 1 minute and incubated at 25° C. for 60 minutes. Finally, 10 μL of the kinase assay reagent from Promega (V9102) was added to the assay plate to convert ADP to ATP, centrifuged at 1500 rpm for 1 minute, incubate at 25° C. for 40 minutes. After 40 minutes incubation, the […] was determined. Based on the results, the IC50 value of the compound was calculated.
Target sequence in this assay (Q92918 1-346 limits assumed): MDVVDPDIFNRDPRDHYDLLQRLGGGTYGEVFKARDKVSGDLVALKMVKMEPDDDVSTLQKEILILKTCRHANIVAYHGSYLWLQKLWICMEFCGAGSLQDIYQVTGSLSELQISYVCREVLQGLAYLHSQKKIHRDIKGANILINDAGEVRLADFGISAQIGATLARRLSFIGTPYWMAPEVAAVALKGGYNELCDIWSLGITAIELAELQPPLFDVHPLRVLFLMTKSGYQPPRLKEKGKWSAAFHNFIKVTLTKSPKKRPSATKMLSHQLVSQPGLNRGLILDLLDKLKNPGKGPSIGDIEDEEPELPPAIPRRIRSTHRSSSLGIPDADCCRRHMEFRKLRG

[2] = target: FLT3-ITD (Homo sapiens, UniProt P36888, ITD); test: FLT3-ITD enzyme inhibition assay; type: biochemical
Sequence of FLT3-ITD (P36888 whole entry, looked up, change not shown): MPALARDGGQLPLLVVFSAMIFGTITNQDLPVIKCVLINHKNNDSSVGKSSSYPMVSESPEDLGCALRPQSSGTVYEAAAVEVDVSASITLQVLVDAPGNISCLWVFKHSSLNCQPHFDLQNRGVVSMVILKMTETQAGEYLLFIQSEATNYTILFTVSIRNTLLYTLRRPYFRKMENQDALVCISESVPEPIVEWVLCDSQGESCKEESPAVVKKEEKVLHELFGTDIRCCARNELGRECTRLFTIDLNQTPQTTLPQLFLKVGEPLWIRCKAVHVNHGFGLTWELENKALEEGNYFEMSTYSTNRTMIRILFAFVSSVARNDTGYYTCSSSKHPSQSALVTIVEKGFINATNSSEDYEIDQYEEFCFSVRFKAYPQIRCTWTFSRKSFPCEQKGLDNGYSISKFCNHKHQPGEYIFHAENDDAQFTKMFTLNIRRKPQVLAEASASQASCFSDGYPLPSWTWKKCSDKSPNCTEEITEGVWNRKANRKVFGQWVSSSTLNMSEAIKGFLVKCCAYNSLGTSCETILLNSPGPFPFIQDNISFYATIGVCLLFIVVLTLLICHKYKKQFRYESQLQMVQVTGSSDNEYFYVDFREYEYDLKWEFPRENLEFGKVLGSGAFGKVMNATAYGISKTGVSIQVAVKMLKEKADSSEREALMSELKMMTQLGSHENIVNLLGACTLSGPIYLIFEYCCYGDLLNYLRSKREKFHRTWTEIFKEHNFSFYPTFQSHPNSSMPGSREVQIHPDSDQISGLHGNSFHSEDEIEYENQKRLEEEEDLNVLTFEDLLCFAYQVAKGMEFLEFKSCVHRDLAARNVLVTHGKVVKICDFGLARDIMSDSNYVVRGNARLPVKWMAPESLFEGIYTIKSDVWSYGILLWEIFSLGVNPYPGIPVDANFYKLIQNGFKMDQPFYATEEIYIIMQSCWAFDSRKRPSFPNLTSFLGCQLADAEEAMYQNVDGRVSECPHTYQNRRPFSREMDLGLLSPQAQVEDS
Procedure: FLT3-ITD Enzyme Inhibition Assay
The compound was dissolved in 100% DMSO at the concentration of 10 mM. The FLT3-ITD protein was purchased from Invitrogen (PV6191). 10 μL per well of 2.5×FLT3-ITD protein was added to assay plate containing the test compound, centrifuged at 1000 rpm for 1 minute, and then incubated at 25° C. for 10 minutes. Peptide 2 was purchased from GL Biochem (112394) and ATP was purchased from Promega (V9102). The two were added 15 μL per well mixture of 1.67× peptide 2 (final conc. is 3 μM) and ATP (final conc. is 97.2 μM), centrifuged at 1000 rpm for 1 minute, then incubated at 25° C. for 40 minutes. Then added 30 μL of stop buffer (100 mM HEPES pH7.5, 0.015% Brij-35, 0.2% Coating Reagent 3, 50 mM EDTA) to the assay plate and centrifuged at 1000 rpm for 1 minute. the product was determined. Based on the results, the IC50 value of the compound was calculated.

[3] = target: T2, Aurora A (Homo sapiens (Human), UniProt O14965); test: Aurora A enzyme inhibition assay; type: biochemical
T2 sequence (O14965 whole entry): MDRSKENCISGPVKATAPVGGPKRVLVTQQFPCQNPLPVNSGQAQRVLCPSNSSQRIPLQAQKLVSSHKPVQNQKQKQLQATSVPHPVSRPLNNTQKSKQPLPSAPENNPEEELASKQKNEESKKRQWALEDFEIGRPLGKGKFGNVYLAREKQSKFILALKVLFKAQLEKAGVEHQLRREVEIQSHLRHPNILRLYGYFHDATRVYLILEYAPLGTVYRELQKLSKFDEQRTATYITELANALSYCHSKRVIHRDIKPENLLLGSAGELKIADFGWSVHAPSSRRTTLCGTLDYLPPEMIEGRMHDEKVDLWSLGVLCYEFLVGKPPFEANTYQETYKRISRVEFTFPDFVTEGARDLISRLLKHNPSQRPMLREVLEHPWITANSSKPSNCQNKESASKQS
Procedure: Aurora A Enzyme Inhibition Assay
The compound was dissolved in 100% DMSO at the concentration of 10 mM. The Aurora A protein was purchased from Carna (05-101). 10 μL per well of 2.5×Aurora A protein was added to assay plate containing the test compound, centrifuged at 1000 rpm for 1 minute, and then incubated at 25° C. for 10 minutes. Peptide 21 was purchased from GL Biochem (116370) and ATP was purchased from Promega (V9102). The two were added 15 μL per well mixture of 1.67× peptide 21 (final conc. is 3 μM) and ATP (final conc. is 14.58 μM), centrifuged at 1000 rpm for 1 minute, then incubated at 25° C. for 40 minutes. Then added 30 μL of stop buffer (100 mM HEPES pH7.5, 0.015% Brij-35, 0.2% Coating Reagent 3, 50 mM EDTA) to the assay plate and centrifuged at 1000 rpm for 1 minute. the product was determined. Based on the results, the IC50 value of the compound was calculated.

[4] = target: T1, HPK1; test: HPK1 degradation assay (western blot, human PBMC); type: cell-based; details: for Dmax: read-out: HPK1 Dmax
Procedure: Frozen human PBMC were purchased from Shanghai OribioTech and recovered with culture medium (RMPI1640) prior to use. The cells were then incubated with a variety of concentrations of compound. After incubation, the cells were collected and lysed. The protein concentration was determined by BCA protein assay kit from Thermo (23227). The HPK1 protein level was determined by western blots, using anti-human HPK1 polyclonal antibody from CST (4472S). Proteins were loaded into each well of the pre-casting gels and subjected to electrophoretic separation by SDS-PAGE. The protein resolved by SDS-PAGE were transferred to PVDF, blocked by 5% skim milk, and probed with anti-human HPK1 antibody or β-actin antibody from CST (3700S), using standard western blotting procedure.
Target sequence in this assay (Q92918 whole entry): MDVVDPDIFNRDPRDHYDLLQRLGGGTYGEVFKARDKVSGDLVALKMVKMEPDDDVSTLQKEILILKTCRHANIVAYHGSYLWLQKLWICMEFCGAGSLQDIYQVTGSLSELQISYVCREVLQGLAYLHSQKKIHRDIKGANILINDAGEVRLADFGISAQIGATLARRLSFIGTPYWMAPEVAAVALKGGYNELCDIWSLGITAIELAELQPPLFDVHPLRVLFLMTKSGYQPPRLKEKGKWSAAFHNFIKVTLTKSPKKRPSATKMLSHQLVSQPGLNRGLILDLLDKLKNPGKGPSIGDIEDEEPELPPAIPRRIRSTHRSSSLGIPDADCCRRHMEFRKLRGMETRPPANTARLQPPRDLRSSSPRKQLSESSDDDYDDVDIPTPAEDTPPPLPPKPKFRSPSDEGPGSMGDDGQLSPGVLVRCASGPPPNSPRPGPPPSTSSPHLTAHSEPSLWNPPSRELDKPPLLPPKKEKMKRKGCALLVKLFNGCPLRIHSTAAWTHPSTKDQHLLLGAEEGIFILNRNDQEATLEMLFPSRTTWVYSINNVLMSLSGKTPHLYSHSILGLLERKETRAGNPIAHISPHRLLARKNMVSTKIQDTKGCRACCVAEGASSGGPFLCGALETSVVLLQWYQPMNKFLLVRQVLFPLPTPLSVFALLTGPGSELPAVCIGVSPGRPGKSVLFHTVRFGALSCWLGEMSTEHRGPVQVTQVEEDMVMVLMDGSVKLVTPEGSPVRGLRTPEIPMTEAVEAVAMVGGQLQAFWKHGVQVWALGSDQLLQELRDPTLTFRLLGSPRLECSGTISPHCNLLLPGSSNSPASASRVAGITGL

[5] = system: FLT3; test: FLT3 degradation assay (western blot, MV-411 cells); type: cell-based, human
Procedure: (§1) MV-411 cells were cultured with medium (IMDM) prior to use. Cells were then incubated with a variety of concentrations of compound. After incubation, the cells were collected and lysed. The protein concentration was determined by BCA protein assay kit from Thermo (23227). The FLT3 protein level was determined by western blots, using anti-human FLT3 monoclonal antibody from CST (3462S). Proteins were loaded into each well of the pre-casting gels and subjected to electrophoretic separation by SDS-PAGE. The protein resolved by SDS-PAGE were transferred to PVDF, blocked by 5% skim milk, and probed with anti-human FLT3 antibody or -actin antibody from CST (3700S), using standard western blotting procedure.

[6] = target: T2, Aurora A; test: Aurora A degradation assay (western blot); type: cell-based; details: for Dmax: read-out: Aurora A Dmax
Procedure: Aurora A Degradation Assay
as §1, with “IMR32” for “MV-411”, “cultured with medium (MEM), Huh7 cells were cultured with medium (DMEM) and HL-60 cells were culture” for “cultured”, “AURKA” for “FLT3”, “(14475S).” for “(3462S).”, “β-actin” for “-actin”, “(3700S) or COX IV antibody from CST (4850S),” for “(3700S),”

[7] = system: MEK 1/2; test: MEK 1/2 degradation assay (western blot); type: cell-based, human
Procedure: MEK 1/2 Degradation Assay
as §1, with “(IMDM) and IMR32 cells were cultured with medium (MEM)” for “(IMDM)”, “anti-human MEK 1/2 polyclonal” for “anti-human FLT3 monoclonal”, “CST (9122S).” for “CST (3462S).”, “anti-human MEK1/2” for “anti-human FLT3”, “or β-actin” for “or -actin”, “CST (3700S) and COX IV antibody from CST (4850S),” for “CST (3700S),”

[8] = enzyme inhibition, read-out: FLT3-ITD IC50
[9] = protein degradation, human PBMC, class symbol, read-out: HPK1 DC50 (nM)/Dmax (%)
[10] = protein degradation, class symbol, read-out: FLT3 DC50 (nM)/Dmax (%)
[11] = protein degradation, IMR32, Huh7 or HL-60 cells, read-out: Aurora A DC50
[12] = protein degradation, IMR32, Huh7 or HL-60 cells
[13] = protein degradation, MV-411 or IMR32 cells
[14] = protein degradation, MV-411 or IMR32 cells; read-out: MEK 1/2 DC50
[15] = protein degradation, human PBMC, read-out: HPK1 DC50
[16] = read-out: FLT3 DC50, protein degradation
[17] = read-out: MEK 1/2 DC50; protein degradation, MV-411 or IMR32 cells
[18] = protein degradation, human PBMC

O=C1CCC(N2Cc3ccc(N4CCC(CN5CCCN(c6cccc(-c7cnc8[nH]cc(C9CC9)c8c7Cl)c6)C5=O)CC4)cc3C2=O)C(=O)N1 (stereo not drawn) [Example 11]
IC50 [1]: 13.6 nM
IC50 [2, 8]: 20.8 nM
IC50 [3]: 21.2 nM
DC50 [4, 9]: > 10000 nM
DC50 [5, 10]: > 10000 nM
DC50 [6, 11]: 9 nM
Dmax [6, 12]: 50%
MEK 1/2 Dmax [7, 13]: 30%
DC50 [7, 14]: 49 nM

CCc1c[nH]c2ncc(-c3cccc(N4CCCN(CC5CCN(c6ccc(NC7CCC(=O)NC7=O)cc6F)CC5)C4=O)c3)c(Cl)c12 (stereo not drawn) [Example 15, 3-((4-(4-((3-(3-(4-chloro-3-ethyl-1H-pyrrolo [2,3-b]pyridin-5-yl)phenyl)-2-oxotetrahydropyrimidin-1 (2H)-yl)methyl)piperidin-1-yl)-3-fluorophenyl)amino) piperidine-2,6-dione]
IC50 [1]: 4.6 nM
IC50 [2]: 8.8 nM
IC50 [3]: 19.9 nM
DC50 [4, 15]: 6 nM
Dmax [4]: 80%
FLT3 Dmax ([5]; protein degradation): 34%
DC50 [5, 16]: 0.02 nM
DC50 [6, 11]: 9.6 nM
Dmax [6]: 82%
MEK 1/2 Dmax [7, 13]: 38%
DC50 [7, 17]: 1 nM

CCc1c[nH]c2ncc(-c3cccc(N4CCCN(CCN5CCN(c6ccc(C7CCC(=O)NC7=O)cc6)CC5)C4=O)c3)c(Cl)c12 (stereo not drawn) [Example 17]
IC50 [1]: 2.9 nM
IC50 [2, 8]: 17.4 nM
IC50 [3]: 16.6 nM
DC50 [4, 15]: 2.3 nM
Dmax [4, 18]: 91%
FLT3 Dmax ([5]; protein degradation): 80%
DC50 ([5]; protein degradation, read-out: FLT3 DC50): 8.7 nM
DC50 [6, 11]: 1 nM
Dmax [6, 12]: 50%
MEK 1/2 Dmax [7, 13]: 47%
DC50 [7, 14]: 1 nM

CCc1c[nH]c2ncc(-c3cccc(N4CCCN(CCN5CCN(c6ccc(NC7CCC(=O)NC7=O)cc6F)CC5)C4=O)c3)c(Cl)c12 (stereo not drawn) [Example 18]
IC50 [1]: 2.5 nM
IC50 [2, 8]: 5.4 nM
IC50 [3]: 10.6 nM
DC50 [4, 15]: 1 nM
Dmax [4, 18]: 52%
DC50 [5, 10]: > 10000 nM
DC50 [6, 11]: 1.1 nM
Dmax [6, 12]: 74%
MEK 1/2 Dmax [7, 13]: 74%
DC50 [7, 14]: 1 nM

CCc1c[nH]c2ncc(-c3cccc(N4CCCN(CCN5CCN(c6ccc7c(N8CCC(=O)NC8=O)cccc7c6)CC5)C4=O)c3)c(Cl)c12 [Example 4, 1-(6-(4-(2-(3-(3-(4-chloro-3-ethyl-1H-pyrrolo [2,3-b]pyridin-5-yl)phenyl)-2-oxotetrahydropyrimidin-1 (2H)-yl)ethyl)piperazin-1-yl)naphthalen-1-yl) dihydropyrimidine-2, 4 (1H, 3H)-dione]
IC50 [1]: 17.1 nM
IC50 [2, 8]: 24 nM
IC50 [3]: 25.2 nM
DC50 [4, 9]: > 10000 nM
DC50 [5, 10]: > 10000 nM
DC50 ([6]; protein degradation, IMR32, Huh7 or HL-60 cells, class symbol, read-out: Aurora A DC50 (nM)/Dmax (%)): > 10000 nM
MEK 1/2 Dmax [7, 13]: 30%
DC50 [7, 14]: < 1 nM

O=C1CCC(N2Cc3ccc(N4CCC(CN5CCCN(c6cccc(-c7cnc8[nH]cc(CC(F)F)c8c7Cl)c6)C5=O)CC4)cc3C2=O)C(=O)N1 (stereo not drawn) [Example 13]
IC50 [1]: 12.5 nM
IC50 [2, 8]: 23.8 nM
IC50 [3]: 14.3 nM
DC50 [4, 15]: 11 nM
Dmax [4, 18]: 50%
DC50 [5, 10]: > 10000 nM
DC50 [6, 11]: 3 nM
Dmax [6, 12]: 70%
MEK 1/2 Dmax [7, 13]: 30%
DC50 [7, 14]: < 1 nM

CCc1c[nH]c2ncc(-c3cccc(N4CCCN(CCC5CCN(c6ccc(NC7CCC(=O)NC7=O)cc6F)CC5)C4=O)c3)c(Cl)c12 (stereo not drawn) [Example 16, 3-((4-(4-(2-(3-(3-(4-chloro-3-ethyl-1H-pyrrolo [2,3-b]pyridin-5-yl)phenyl)-2-oxotetrahydropyrimidin-1 (2H)-yl)ethyl)piperidin-1-yl)-3-fluorophenyl)amino) piperidine-2,6-dione]
IC50 [1]: 5.5 nM
IC50 [2]: 12.3 nM
IC50 [3]: 40.8 nM
DC50 [4, 15]: 100 nM
Dmax [4]: 64%
FLT3 Dmax ([5]; protein degradation): 17%
DC50 [5, 16]: 115 nM
DC50 [6, 11]: 4.6 nM
Dmax [6]: 75%
MEK 1/2 Dmax [7, 13]: 75%
DC50 [7, 17]: 4.6 nM

CCc1c[nH]c2ncc(-c3cccc(N4CCCN(CC5CCN(c6ccc7c(c6)C(=O)N(C6CCC(=O)NC6=O)C7=O)CC5)C4=O)c3)c(Cl)c12 (stereo not drawn) [Example 8, 5-(4-((3-(3-(4-chloro-3-ethyl-1H-pyrrolo [2,3-b]pyridin-5-yl)phenyl)-2-oxotetrahydropyrimidin-1 (2H)-yl)methyl)piperidin-1-yl)-2-(2,6-dioxopiperidin-3-yl) isoindoline-1,3-dione]
IC50 [1]: 15.7 nM
IC50 [2]: 5.7 nM
IC50 [3]: 110 nM
DC50 [4, 15]: 85 nM
Dmax [4]: 95%
FLT3 Dmax ([5]; protein degradation): 95%
DC50 [5, 16]: 8 nM
DC50 [6, 11]: < 20 nM
Dmax [6]: 95%
MEK 1/2 Dmax [7, 13]: 91%
DC50 [7, 17]: 82 nM
